These results are taken from the Kinase Knowledgebase extract (Sharma et al. 2016).

In general, IC50 refers to the concentration that gives 50% inhibition. Low values mean greater potency, high ones weaker potency.

A value given as a limit tells only on which side of the number the result lay.

The target of the experiment is MAPK14 (UniProt Q16539). Description: Inhibition of MAPK14 Kinase Activity.
MAPK14, sequence (Q16539 whole entry, looked up): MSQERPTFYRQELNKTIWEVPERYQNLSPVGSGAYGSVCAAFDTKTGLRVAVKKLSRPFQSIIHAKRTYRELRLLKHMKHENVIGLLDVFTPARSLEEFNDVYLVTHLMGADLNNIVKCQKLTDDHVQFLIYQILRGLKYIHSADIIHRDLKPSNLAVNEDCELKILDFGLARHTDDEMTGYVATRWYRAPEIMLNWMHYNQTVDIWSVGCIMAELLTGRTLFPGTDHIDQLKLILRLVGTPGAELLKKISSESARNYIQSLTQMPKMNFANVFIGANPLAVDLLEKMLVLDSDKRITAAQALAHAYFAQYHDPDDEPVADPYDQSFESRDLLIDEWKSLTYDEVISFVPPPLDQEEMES

`CC(C)S(=O)(=O)n1c(N)nc2ccc(-c3sc(-c4ccccc4)nc3-c3ccccc3)cc21` yielded an IC50 not above 5 µM. Take `CC(C)S(=O)(=O)n1c(N)nc2ccc(C3C(c4ccccc4)N=C4C=CC(Cl)=CN43)cc21` (stereo not given): the IC50 was not above 5 µM. The value for `CC(C)S(=O)(=O)n1c(N)nc2ccc(-c3nc(-c4c(Cl)cccc4Cl)[nH]c3-c3ccccc3)cc21` was not above 5 µM; that for `CC(C)S(=O)(=O)n1c(N)nc2ccc(-c3c(-c4ccccc4)ncn3-c3ccc([N+](=O)[O-])cc3)cc21` was not above 5 µM. On to `CC(C)S(=O)(=O)n1c(N)nc2ccc(-c3nc(-c4cccs4)[nH]c3-c3ccc(F)cc3)cc21`, for which the IC50 is not above 5 µM.

The compound `CC(C)S(=O)(=O)n1c(N)nc2ccc(-c3nc(C=O)[nH]c3-c3ccccc3)cc21` gave an IC50 not above 5 µM. The value for `CCN1CCC(c2nc(-c3ccc4nc(N)n(S(=O)(=O)C(C)C)c4c3)c(-c3ccccc3)[nH]2)CC1` was not above 5 µM; that for `CC(C)S(=O)(=O)n1c(N)nc2ccc(-c3nc(-c4ccc(OCCN5CCCCC5)cc4)[nH]c3-c3ccccc3)cc21` was not above 5 µM; that for `CCOC(=O)N1CCC(n2cnc(-c3cccc(F)c3)c2-c2ccc3nc(N)n(S(=O)(=O)C(C)C)c3c2)CC1` was not above 5 µM. As for `CC(C)S(=O)(=O)n1c(N)nc2ccc(-c3nc(C4CCN(C(=O)OC(C)(C)C)CC4)[nH]c3-c3ccc(F)cc3)cc21`, the figure is not above 5 µM; as for `CC(=O)Nc1ccc(-c2nc(-c3ccc4nc(N)n(S(=O)(=O)C(C)C)c4c3)c(-c3ccccc3)[nH]2)cc1`, not above 5 µM; as for `CC(C)S(=O)(=O)n1c(N)nc2ccc(-c3nc(C4CCOCC4)[nH]c3-c3ccccc3)cc21`, not above 5 µM. The value for `COc1ccc(Cn2cnc(-c3ccccc3)c2-c2ccc3nc(N)n(S(=O)(=O)C(C)C)c3c2)cc1` was not above 5 µM.

With `COC(=O)CCn1cnc(-c2ccccc2)c1-c1ccc2nc(N)n(S(=O)(=O)C(C)C)c2c1`, the IC50 is not above 5 µM.

On to `CC(C)S(=O)(=O)n1c(N)nc2ccc(-c3nc(-c4ccc(Cl)cc4F)[nH]c3-c3ccccc3)cc21`, for which the IC50 was not above 5 µM. The value for `CC(C)S(=O)(=O)n1c(N)nc2ccc(-c3nc(-c4ccccc4Cl)[nH]c3-c3ccccc3)cc21` was not above 5 µM; that for `CC(C)S(=O)(=O)n1c(N)nc2ccc(-c3c(-c4ccc(F)cc4)ncn3C3CCNCC3)cc21` was not above 5 µM; that for `CC(C)S(=O)(=O)n1c(N)nc2ccc(-c3c(-c4ccc(F)cc4)nc4n3CCC4)cc21` was not above 5 µM. With `CC(C)S(=O)(=O)n1c(N)nc2ccc(-c3nc(-c4cccc(OCCN(C)C)c4)[nH]c3-c3ccccc3)cc21`, the IC50 was not above 5 µM.

Regarding `CC(C)S(=O)(=O)n1c(N)nc2ccc(-c3c(-c4ccc(F)cc4)ncn3C3CC3)cc21`, the IC50 was not above 5 µM. As for `CC(C)S(=O)(=O)n1c(N)nc2ccc(-c3nc(-c4ccc(S(C)(=O)=O)cc4)[nH]c3-c3ccccc3)cc21`, the figure is not above 5 µM; as for `CC(C)S(=O)(=O)n1c(N)nc2ccc(-c3c(-c4ccccc4)ncn3Cc3cccnc3)cc21`, not above 5 µM. Compound `Cc1ccccc1-c1nc(-c2ccc3nc(N)n(S(=O)(=O)C(C)C)c3c2)c(-c2ccccc2)[nH]1` registered an IC50 not above 5 µM. The value for `Cc1cccn2c(-c3ccc4nc(N)n(S(=O)(=O)C(C)C)c4c3)c(-c3ccccc3)nc12` was not above 5 µM; that for `Cc1ccc(-c2[nH]c(-c3ccc(F)cc3)nc2-c2ccc3nc(N)n(S(=O)(=O)C(C)C)c3c2)cc1` was not above 5 µM.

In turn, `CC(C)S(=O)(=O)n1c(N)nc2ccc(-c3c(-c4cccc(F)c4F)ncn3C)cc21` yielded an IC50 not above 5 µM.

As for `CC(C)S(=O)(=O)n1c(Cc2ccccc2N)nc2ccc(-c3[nH]cnc3-c3ccccc3)cc21`, the IC50 is not above 5 µM. The value for `CC(C)S(=O)(=O)n1c(N)nc2ccc(-c3c(-c4cccc(F)c4)ncn3Cc3cccnc3)cc21` was not above 5 µM.

As for `CC(C)S(=O)(=O)n1c(N)nc2ccc(-c3nc(-c4ccc(Cl)cc4)[nH]c3-c3ccccc3)cc21`, the IC50 is not above 5 µM. `CC(C)S(=O)(=O)n1c(N)nc2ccc(-c3nc(-c4ccc(OCCN5CCCC5)c(F)c4)[nH]c3-c3ccccc3)cc21` returned an IC50 not above 5 µM.

In the case of `CCNc1ccc(-c2nc(-c3ccc4nc(N)n(S(=O)(=O)C(C)C)c4c3)c(-c3ccccc3)[nH]2)cc1`, the IC50 was not above 5 µM. The value for `CC(C)S(=O)(=O)n1c(N)nc2ccc(-c3nc(-c4c(F)cc(OCCN5CCCC5)cc4F)[nH]c3-c3ccccc3)cc21` was not above 5 µM; that for `CC(C)S(=O)(=O)n1c(N)nc2ccc(-c3nc(C4CCN(Cc5ccccn5)CC4)[nH]c3-c3ccccc3)cc21` was not above 5 µM. The value for `CC(C)S(=O)(=O)n1c(N)nc2ccc(-c3c(-c4ccccc4F)ncn3Cc3cccnc3)cc21` was not above 5 µM. `CC(C)S(=O)(=O)n1c(N)nc2ccc(-c3nc(-c4ccc(F)cc4F)[nH]c3-c3cc(F)cc(F)c3)cc21` gave an IC50 not above 5 µM. As for `CC(C)n1cnc(-c2ccccc2)c1-c1ccc2nc(N)n(S(=O)(=O)C(C)C)c2c1`, the figure is not above 5 µM; as for `CCOC(=O)N1CCC(n2cnc(-c3ccccc3F)c2-c2ccc3nc(N)n(S(=O)(=O)C(C)C)c3c2)CC1`, not above 5 µM. Take `CC(C)S(=O)(=O)n1c(N)nc2ccc(-c3nc(CN4CCCCC4)[nH]c3-c3ccccc3)cc21`: the IC50 was not above 5 µM. The value for `CC(C)S(=O)(=O)n1c(N)nc2ccc(-c3c(-c4ccccc4)ncn3[C@H]3CC[C@H](O)CC3)cc21` was not above 5 µM; that for `CC(C)S(=O)(=O)n1c(N)nc2ccc(-c3[nH]n(-c4ccccc4)c(=O)c3-c3ccccc3)cc21` was not above 5 µM. As for `CC(C)S(=O)(=O)n1c(N)nc2ccc(-c3nc(-c4ccsc4)[nH]c3-c3ccc(F)cc3)cc21`, the figure is not above 5 µM; as for `Cc1ccccc1-c1[nH]c(-c2ccc(F)cc2)nc1-c1ccc2nc(N)n(S(=O)(=O)C(C)C)c2c1`, not above 5 µM; as for `CC(C)S(=O)(=O)n1c(N)nc2ccc(-c3nc(-c4ccc(OCCN5CCOCC5)c(F)c4)[nH]c3-c3ccccc3)cc21`, not above 5 µM. As for `CC(C)S(=O)(=O)n1c(N)nc2ccc(-c3c(-c4ccc(F)cc4)ncn3CCN3CCOCC3)cc21`, the figure is not above 5 µM; as for `CC(C)S(=O)(=O)n1c(N)nc2ccc(-c3nc(-c4cccs4)n(C)c3-c3ccccc3)cc21`, not above 5 µM. In turn, `CC(C)S(=O)(=O)n1c(N)nc2ccc(-c3nc(-c4c(F)cccc4F)n(C)c3-c3ccccc3)cc21` came in with an IC50 not above 5 µM.

Compound `CC(C)S(=O)(=O)n1c(N)nc2ccc(-c3c(-c4ccccc4)ncn3C3CCC(N)CC3)cc21` (stereo not given) registered an IC50 not above 5 µM. As for `CC(C)S(=O)(=O)n1c(N)nc2ccc(-c3c(-c4ccc(F)cc4)ncn3CC3CC3)cc21`, the figure is not above 5 µM. The value for `CC(C)S(=O)(=O)n1c(N)nc2ccc(-c3nc(C(C)(C)C)[nH]c3-c3ccc(F)cc3)cc21` was not above 5 µM. As for `CC(C)CN1CCC(c2nc(-c3ccc4nc(N)n(S(=O)(=O)C(C)C)c4c3)c(-c3ccc(F)cc3)[nH]2)CC1`, the figure is not above 5 µM; as for `CC(C)S(=O)(=O)n1c(N)nc2ccc(-c3c(-c4ccccc4)nc4n3CCC4)cc21`, not above 5 µM. Regarding `CC(C)S(=O)(=O)n1c(N)nc2ccc(-c3nc(-c4cccc(OCCN5CCCCC5)c4)[nH]c3-c3ccccc3)cc21`, the IC50 is not above 5 µM.

The compound `CC(C)S(=O)(=O)n1c(N)nc2ccc(-c3nc(C4CCN(CCO)CC4)[nH]c3-c3ccccc3)cc21` gave an IC50 not above 5 µM. As for `COc1ccc(Cn2cnc(-c3ccccc3)c2-c2ccc3ncn(S(=O)(=O)C(C)C)c3c2)cc1`, the figure is not above 5 µM; as for `CC(C)S(=O)(=O)n1c(N)nc2ccc(-c3c(-c4ccccc4F)nc(N=[N+]=[N-])n3C3CC3)cc21`, not above 5 µM.

Compound `CC(C)S(=O)(=O)n1c(N)nc2ccc(-c3c(-c4ccc(F)cc4)ncn3C3CCN(Cc4ccccc4)CC3)cc21` returned an IC50 not above 5 µM. For the compound `CCc1ccc(-c2nc(-c3ccc4nc(N)n(S(=O)(=O)C(C)C)c4c3)c(-c3ccccc3)[nH]2)s1`, the IC50 was not above 5 µM.

Regarding `CC(C)S(=O)(=O)n1c(N)nc2ccc(-c3nc(-c4ccc(Cl)s4)[nH]c3-c3ccccc3)cc21`, the IC50 is not above 5 µM. On to `CC(C)S(=O)(=O)n1c(N)nc2ccc(-c3nc(C4CCN(CCC(F)(F)F)CC4)[nH]c3-c3ccccc3)cc21`, for which the IC50 is not above 5 µM. As for `COc1ccc(Cn2c(CO)nc(-c3ccccc3)c2-c2ccc3nc(N)n(S(=O)(=O)C(C)C)c3c2)cc1`, the figure is not above 5 µM; as for `Cc1cc(F)ccc1-c1[nH]c(-c2ccc(F)cc2)nc1-c1ccc2nc(N)n(S(=O)(=O)C(C)C)c2c1`, not above 5 µM. As for `CC(C)S(=O)(=O)n1c(N)nc2ccc(-c3nc(-c4ccccc4)[nH]c3-c3ccccc3)cc21`, the figure is not above 5 µM; as for `CC(C)S(=O)(=O)n1c(N)nc2ccc(-c3nc(C4CCN(C)CC4)[nH]c3-c3ccccc3)cc21`, not above 5 µM; as for `CC(C)S(=O)(=O)n1c(N)nc2ccc(-c3c(-c4ccccc4)nc4ccccn34)cc21`, not above 5 µM. As to `CC(C)S(=O)(=O)n1c(N)nc2ccc(-c3nc(-c4ccccc4N4CCOCC4)[nH]c3-c3ccccc3)cc21`, the IC50 is not above 5 µM. The value for `CC(C)S(=O)(=O)n1c(N)nc2ccc(-c3c(-c4ccccc4F)nc(Br)n3C3CCCCC3)cc21` was not above 5 µM.

The compound `Nc1nc2ccc(-c3c(-c4ccccc4)ncn3C3CCCCC3)cc2s1` gave an IC50 not above 5 µM. The value for `CC(C)S(=O)(=O)n1c(N)nc2ccc(-c3c(-c4ccc(F)cc4F)ncn3C3CC3)cc21` was not above 5 µM; that for `CC(C)c1nc(-c2ccc3nc(N)n(S(=O)(=O)C(C)C)c3c2)c(-c2ccc(F)cc2)[nH]1` was not above 5 µM.

`CC(C)S(=O)(=O)n1c(N)nc2ccc(-c3nc(C4CCNCC4)[nH]c3-c3ccc(F)cc3)cc21` showed an IC50 not above 5 µM.

`CC(C)S(=O)(=O)n1c(N)nc2ccc(-c3c(-c4ccccc4)nn4c3CCC4)cc21` displayed an IC50 not above 5 µM.

Consider `CC(C)CN1CCC(c2nc(-c3ccc4nc(N)n(S(=O)(=O)C(C)C)c4c3)c(-c3ccccc3)[nH]2)CC1`, for which the IC50 is not above 5 µM. Regarding `CC(C)S(=O)(=O)n1c(N)nc2ccc(-c3c(-c4ccc(F)cc4)ncn3[C@@H](C)CO)cc21`, the IC50 was not above 5 µM. The value for `CC(C)S(=O)(=O)n1c(N)nc2ccc(-c3nc(CCC(=O)O)[nH]c3-c3ccccc3)cc21` was not above 5 µM; that for `CC(C)S(=O)(=O)n1c(N)nc2ccc(-c3nc(C4CCNCC4)[nH]c3-c3ccccc3)cc21` was not above 5 µM.
